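Compound exposure: 48 hours, 5 concentrations, 96-well plates. Definition used: TGI = concentration required for complete inhibition of growth.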
Columns and labels:
Assay in all cases: inhibition of tumour cell growth, NCI panel, 48 h
MDA-N = test system: MDA-N
SN12C renal = test system: SN12C renal
HCT-15 colon = test system: HCT-15 colon
NCI-H460 lung = test system: NCI-H460 lung
M14 melanoma = test system: M14 melanoma
SK-OV-3 ovarian = test system: SK-OV-3 ovarian
K-562 leukemia = test system: K-562 leukemia
MDA-MB-435 = test system: MDA-MB-435
MALME-3M melanoma = test system: MALME-3M melanoma
MDA-MB-231 breast = test system: MDA-MB-231 breast
A549 NSCLC = test system: A549 NSCLC
SK-MEL-28 melanoma = test system: SK-MEL-28 melanoma
NCI/ADR-RES ovarian = test system: NCI/ADR-RES ovarian
HCT-116 colon = test system: HCT-116 colon
T-47D breast = test system: T-47D breast
SF-539 CNS = test system: SF-539 CNS
IGROV1 ovarian = test system: IGROV1 ovarian
786-0 renal = test system: 786-0 renal
CCRF-CEM leukemia = test system: CCRF-CEM leukemia
SK-MEL-5 melanoma = test system: SK-MEL-5 melanoma
EKVX NSCLC = test system: EKVX NSCLC
HOP-92 NSCLC = test system: HOP-92 NSCLC
SR leukemia = test system: SR leukemia
NCI-H23 lung = test system: NCI-H23 lung
HCC-2998 colon = test system: HCC-2998 colon
OVCAR-4 ovarian = test system: OVCAR-4 ovarian
HOP-62 NSCLC = test system: HOP-62 NSCLC
SNB-19 CNS = test system: SNB-19 CNS
NCI-H226 lung = test system: NCI-H226 lung
SF-268 CNS = test system: SF-268 CNS
SNB-75 CNS = test system: SNB-75 CNS
ACHN renal = test system: ACHN renal
OVCAR-5 ovarian = test system: OVCAR-5 ovarian
OVCAR-8 ovarian = test system: OVCAR-8 ovarian
PC-3 prostate = test system: PC-3 prostate
COLO 205 colon = test system: COLO 205 colon
U251 CNS = test system: U251 CNS
UO-31 renal = test system: UO-31 renal
UACC-62 melanoma = test system: UACC-62 melanoma
MOLT-4 leukemia = test system: MOLT-4 leukemia
CAKI-1 renal = test system: CAKI-1 renal
HT29 colon = test system: HT29 colon
SW-620 colon = test system: SW-620 colon
DU-145 prostate = test system: DU-145 prostate
KM12 colon = test system: KM12 colon
NCI-H522 lung = test system: NCI-H522 lung
UACC-257 melanoma = test system: UACC-257 melanoma
TK-10 renal = test system: TK-10 renal
HL-60(TB) leukemia = test system: HL-60(TB) leukemia
BT-549 breast = test system: BT-549 breast
A498 renal = test system: A498 renal
SF-295 CNS = test system: SF-295 CNS
MCF7 breast = test system: MCF7 breast
OVCAR-3 ovarian = test system: OVCAR-3 ovarian
RPMI-8226 leukemia = test system: RPMI-8226 leukemia
RXF 393 renal = test system: RXF 393 renal
HS 578T breast = test system: HS 578T breast
SK-MEL-2 melanoma = test system: SK-MEL-2 melanoma
LOX IMVI melanoma = test system: LOX IMVI melanoma

CC(C)(Oc1ccc(-c2cccc3ccccc23)cc1)C(=O)O
TGI (MDA-N): > 100 µM
TGI (SN12C renal): > 100 µM
TGI (HCT-15 colon): > 100 µM
TGI (NCI-H460 lung): > 100 µM
TGI (M14 melanoma): > 100 µM
TGI (SK-OV-3 ovarian): > 100 µM
TGI (K-562 leukemia): > 100 µM
TGI (MDA-MB-435): > 100 µM
TGI (MALME-3M melanoma): > 100 µM
TGI (MDA-MB-231 breast): > 100 µM
TGI (A549 NSCLC): > 100 µM
TGI (SK-MEL-28 melanoma): > 100 µM
TGI (NCI/ADR-RES ovarian): > 100 µM
TGI (HCT-116 colon): > 100 µM
TGI (T-47D breast): > 100 µM
TGI (SF-539 CNS): > 100 µM
TGI (IGROV1 ovarian): > 100 µM
TGI (786-0 renal): > 100 µM
TGI (CCRF-CEM leukemia): > 100 µM
TGI (SK-MEL-5 melanoma): > 100 µM
TGI (EKVX NSCLC): > 100 µM
TGI (HOP-92 NSCLC): > 100 µM
TGI (SR leukemia): > 100 µM
TGI (NCI-H23 lung): > 100 µM
TGI (HCC-2998 colon): > 100 µM
TGI (OVCAR-4 ovarian): > 100 µM
TGI (HOP-62 NSCLC): > 100 µM
TGI (SNB-19 CNS): > 100 µM
TGI (NCI-H226 lung): > 100 µM
TGI (SF-268 CNS): > 100 µM
TGI (SNB-75 CNS): > 100 µM
TGI (ACHN renal): > 100 µM
TGI (OVCAR-5 ovarian): > 100 µM
TGI (OVCAR-8 ovarian): > 100 µM
TGI (PC-3 prostate): > 100 µM
TGI (COLO 205 colon): > 100 µM
TGI (U251 CNS): > 100 µM
TGI (UO-31 renal): > 100 µM
TGI (UACC-62 melanoma): > 100 µM
TGI (MOLT-4 leukemia): > 100 µM
TGI (CAKI-1 renal): > 100 µM
TGI (HT29 colon): > 100 µM
TGI (SW-620 colon): > 100 µM
TGI (DU-145 prostate): > 100 µM
TGI (KM12 colon): > 100 µM
TGI (NCI-H522 lung): > 100 µM
TGI (UACC-257 melanoma): > 100 µM
TGI (TK-10 renal): > 100 µM
TGI (HL-60(TB) leukemia): 30.1 µM
TGI (BT-549 breast): > 100 µM
TGI (A498 renal): > 100 µM
TGI (SF-295 CNS): > 100 µM
TGI (MCF7 breast): > 100 µM
TGI (OVCAR-3 ovarian): > 100 µM
TGI (RPMI-8226 leukemia): > 100 µM
TGI (RXF 393 renal): > 100 µM
TGI (HS 578T breast): > 100 µM
TGI (SK-MEL-2 melanoma): > 100 µM

COc1ccc(-c2nc3ccccc3c(=O)[nH]2)cc1
TGI (MDA-N): > 100 µM
TGI (SN12C renal): > 100 µM
TGI (HCT-15 colon): > 100 µM
TGI (M14 melanoma): > 100 µM
TGI (SK-OV-3 ovarian): > 100 µM
TGI (K-562 leukemia): > 100 µM
TGI (MDA-MB-435): > 100 µM
TGI (LOX IMVI melanoma): > 100 µM
TGI (MALME-3M melanoma): > 100 µM
TGI (MDA-MB-231 breast): > 100 µM
TGI (A549 NSCLC): > 100 µM
TGI (SK-MEL-28 melanoma): > 100 µM
TGI (NCI/ADR-RES ovarian): > 100 µM
TGI (HCT-116 colon): > 100 µM
TGI (T-47D breast): > 100 µM
TGI (SF-539 CNS): > 100 µM
TGI (IGROV1 ovarian): > 100 µM
TGI (786-0 renal): > 100 µM
TGI (CCRF-CEM leukemia): > 100 µM
TGI (SK-MEL-5 melanoma): > 100 µM
TGI (EKVX NSCLC): > 100 µM
TGI (HOP-92 NSCLC): > 100 µM
TGI (SR leukemia): > 100 µM
TGI (NCI-H23 lung): > 100 µM
TGI (OVCAR-4 ovarian): 95.1 µM
TGI (HOP-62 NSCLC): > 100 µM
TGI (SNB-19 CNS): > 100 µM
TGI (NCI-H226 lung): > 100 µM
TGI (SF-268 CNS): > 100 µM
TGI (SNB-75 CNS): 84.9 µM
TGI (OVCAR-5 ovarian): > 100 µM
TGI (OVCAR-8 ovarian): > 100 µM
TGI (PC-3 prostate): > 100 µM
TGI (COLO 205 colon): > 100 µM
TGI (U251 CNS): > 100 µM
TGI (UO-31 renal): > 100 µM
TGI (UACC-62 melanoma): > 100 µM
TGI (MOLT-4 leukemia): > 100 µM
TGI (CAKI-1 renal): > 100 µM
TGI (HT29 colon): > 100 µM
TGI (SW-620 colon): > 100 µM
TGI (DU-145 prostate): > 100 µM
TGI (KM12 colon): > 100 µM
TGI (NCI-H522 lung): > 100 µM
TGI (UACC-257 melanoma): > 100 µM
TGI (TK-10 renal): > 100 µM
TGI (HL-60(TB) leukemia): > 100 µM
TGI (BT-549 breast): > 100 µM
TGI (A498 renal): > 100 µM
TGI (SF-295 CNS): > 100 µM
TGI (MCF7 breast): > 100 µM
TGI (OVCAR-3 ovarian): > 100 µM
TGI (RPMI-8226 leukemia): > 100 µM
TGI (RXF 393 renal): > 100 µM
TGI (HS 578T breast): 31.9 µM
TGI (SK-MEL-2 melanoma): > 100 µM

From PubChem BioAssay (NCI)
